Test in all cases: Test G Pre-Emergence Protocol
What all share (assay type): in vivo

Assay [1] deals with redroot pigweed (Amaranthus retroflexus). The following applies: Amaranthus retroflexus, pre-emergence, 312 h, evaluated after 13 days; for pest or weed control at 15.625 g/ha: 15.625 g ai/ha; for pest or weed control at 15.625 g/ha / pest or weed control at 250 g/ha: read-out: Pigweed, Redroot damage rating (100=total damage to plant; 0=no damage to plant); for pest or weed control at 62.5 g/ha: 62.5 g ai/ha, 100=total damage to plant, 0=no damage to plant, read-out: plant damage rating, Pigweed, Redroot; for pest or weed control at 250 g/ha: 250 g ai/ha. The method in brief: (§1)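 Herbicidal effect was rated 13 days post-application on a scale where 100 equals total damage. Spraying took place the day after sowing, using 15.625, 62.5 or 250 g/ha of compound in a 50:50 acetone/water solution with 0.5% Tween 20.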

For assay [2], the system named is ivy-leaved morning glory (Ipomoea hederacea). The following applies: Ipomoea, pre-emergence, 312 h, evaluated after 13 days; for pest or weed control at 15.625 g/ha: 15.625 g ai/ha, read-out: Morning-glory, Ivy-leaved damage rating (100=total damage to plant; 0=no damage to plant); for pest or weed control at 62.5 g/ha: 62.5 g ai/ha, 100=total damage to plant, 0=no damage to plant, read-out: plant damage rating, Morningglory, Ivy-leaved; for pest or weed control at 250 g/ha: 250 g ai/ha, read-out: Morningglory, Ivy-leaved damage rating (100=total damage to plant; 0=no damage to plant). In outline:
as §1

The subject of the next assay is corn (Zea mays). The following applies: Zea mays, pre-emergence, 312 h, evaluated after 13 days; for plant injury at 15.625 g/ha: 15.625 g ai/ha; for plant injury at 15.625 g/ha / plant injury at 250 g/ha: read-out: Corn damage rating (100=total damage to plant; 0=no damage to plant); for plant injury at 62.5 g/ha: 62.5 g ai/ha, 100=total damage to plant, 0=no damage to plant, read-out: plant damage rating, Corn; for plant injury at 250 g/ha: 250 g ai/ha. The method in brief: as §1

The subject of assay [3] is barnyardgrass (Echinochloa crus-galli). The following applies: Echinochloa crus-galli, pre-emergence, 312 h, evaluated after 13 days; for pest or weed control at 15.625 g/ha: 15.625 g ai/ha, read-out: Barnyard grass damage rating (100=total damage to plant; 0=no damage to plant); for pest or weed control at 62.5 g/ha: 62.5 g ai/ha, 100=total damage to plant, 0=no damage to plant, read-out: plant damage rating, Barnyardgrass; for pest or weed control at 250 g/ha: 250 g ai/ha, read-out: Barnyardgrass damage rating (100=total damage to plant; 0=no damage to plant). The method in brief: as §1

Assay [4] deals with giant foxtail (Setaria faberi). The following applies: Setaria faberi, pre-emergence, 312 h, evaluated after 13 days; for pest or weed control at 15.625 g/ha: 15.625 g ai/ha; for pest or weed control at 15.625 g/ha / pest or weed control at 250 g/ha: read-out: Foxtail, Giant damage rating (100=total damage to plant; 0=no damage to plant); for pest or weed control at 62.5 g/ha: 62.5 g ai/ha, 100=total damage to plant, 0=no damage to plant, read-out: plant damage rating, Foxtail, Giant; for pest or weed control at 250 g/ha: 250 g ai/ha. In outline:
as §1

Assay [5] relates to velvetleaf (Abutilon theophrasti). The following applies: Abutilon theophrasti, pre-emergence, 312 h, evaluated after 13 days; for pest or weed control at 15.625 g/ha: 15.625 g ai/ha; for pest or weed control at 15.625 g/ha / pest or weed control at 250 g/ha: read-out: Velvetleaf damage rating (100=total damage to plant; 0=no damage to plant); for pest or weed control at 62.5 g/ha: 62.5 g ai/ha, 100=total damage to plant, 0=no damage to plant, read-out: plant damage rating, Velvetleaf; for pest or weed control at 250 g/ha: 250 g ai/ha. The method in brief: as §1

The results in this text go back to patent US12077503B2, “Substituted cyclic amides and their use as herbicides” (FMC CORPORATION, priority 2015, dated 2024).

`CN1C[C@@H](c2ccc(C(F)(F)F)cc2)[C@H](C(=O)Nc2ncc(Br)cn2)C1=O` (racemic) [Compound 1514]: in assay [1], the pest or weed control at 15.625 g/ha is 0%, the pest or weed control at 62.5 g/ha was 0% and the pest or weed control at 250 g/ha came to 0%. Also, in assay [2], the pest or weed control at 15.625 g/ha turned out to be 0%, the pest or weed control at 62.5 g/ha stood at 0% and the pest or weed control at 250 g/ha is 0%. For the same compound, in the assay with corn (Zea mays), the plant injury at 15.625 g/ha is 0%, the plant injury at 62.5 g/ha was determined as 0% and the plant injury at 250 g/ha was 0%. In addition, in assay [3], the pest or weed control at 15.625 g/ha turned out to be 0%, the pest or weed control at 62.5 g/ha is 0% and the pest or weed control at 250 g/ha was 0%. In assay [4], the pest or weed control at 15.625 g/ha was 0%, the pest or weed control at 62.5 g/ha was determined as 0% and the pest or weed control at 250 g/ha came to 0%. For the same compound, in assay [5], the pest or weed control at 15.625 g/ha is 0%, the pest or weed control at 62.5 g/ha is 0% and the pest or weed control at 250 g/ha came out at 0%.
As to `Cc1cscc1NC(=O)[C@@H]1C(=O)N(C)C[C@H]1c1ccc(C(F)(F)F)cc1` (racemic) [Compound 1526], in assay [1], the pest or weed control at 15.625 g/ha stood at 0%, the pest or weed control at 62.5 g/ha turned out to be 50% and the pest or weed control at 250 g/ha stood at 70%. Besides, in assay [2], the pest or weed control at 15.625 g/ha stood at 10% and the pest or weed control at 250 g/ha came out at 0%. For the same compound, in the assay on corn (Zea mays), the plant injury at 15.625 g/ha came out at 0%, the plant injury at 62.5 g/ha is 0% and the plant injury at 250 g/ha was found to be 10%. In assay [3], the pest or weed control at 15.625 g/ha came to 20%, the pest or weed control at 62.5 g/ha worked out at 60% and the pest or weed control at 250 g/ha is 80%. In assay [4], the pest or weed control at 15.625 g/ha stood at 30%, the pest or weed control at 62.5 g/ha is 50% and the pest or weed control at 250 g/ha amounted to 90%. Also, in assay [5], the pest or weed control at 15.625 g/ha was determined as 0%, the pest or weed control at 62.5 g/ha is 0% and the pest or weed control at 250 g/ha turned out to be 0%.
For `CN1C[C@@H](c2ccc(C(F)(F)F)cc2)[C@H](C(=O)Nc2ncc(C#N)s2)C1=O` (racemic) [Compound 1528], in assay [1], the pest or weed control at 15.625 g/ha amounted to 0%, the pest or weed control at 62.5 g/ha came to 0% and the pest or weed control at 250 g/ha amounted to 0%. In addition, in assay [2], the pest or weed control at 15.625 g/ha is 0%, the pest or weed control at 62.5 g/ha worked out at 0% and the pest or weed control at 250 g/ha worked out at 0%. Further, in the assay on corn (Zea mays), the plant injury at 15.625 g/ha was 0%, the plant injury at 62.5 g/ha is 0% and the plant injury at 250 g/ha is 0%. In addition, in assay [3], the pest or weed control at 15.625 g/ha was determined as 0%, the pest or weed control at 62.5 g/ha is 0% and the pest or weed control at 250 g/ha is 0%. Moreover, in assay [4], the pest or weed control at 15.625 g/ha was determined as 0%, the pest or weed control at 62.5 g/ha turned out to be 0% and the pest or weed control at 250 g/ha was determined as 0%. In addition, in assay [5], the pest or weed control at 15.625 g/ha was found to be 0%, the pest or weed control at 62.5 g/ha stood at 0% and the pest or weed control at 250 g/ha turned out to be 0%.
For `Cc1cc(NC(=O)[C@@H]2C(=O)N(C)C[C@H]2c2ccc(C(F)(F)F)cc2)n[nH]1` (racemic) [Compound 1532], the pest or weed control at 15.625 g/ha in assay [1] was found to be 0%; in assay [2], 0%; in assay [3], 0%; in assay [4], 100%; in assay [5] it was 0%. The pest or weed control at 62.5 g/ha in assay [1] amounted to 0%; in assay [2], 0%; in assay [3] it was 30%; in assay [4], 100%; in assay [5], 0%. Also, the pest or weed control at 250 g/ha in assay [1], in assay [2], in assay [3], in assay [4] and in assay [5] was 0% in each case. Moreover, the plant injury at 15.625 g/ha in the assay with corn (Zea mays) worked out at 0%. Also, the plant injury at 62.5 g/ha in the assay with corn (Zea mays) was found to be 0%. Besides, the plant injury at 250 g/ha in the assay with corn (Zea mays) came out at 0%.
As for `CN1C[C@@H](c2ccc(C(F)(F)F)cc2)[C@H](C(=O)Nc2cc[nH]n2)C1=O` (racemic) [Compound 1533], the pest or weed control at 15.625 g/ha in assay [1], in assay [2], in assay [3] and in assay [5] was 0% in each case. The pest or weed control at 62.5 g/ha in assay [1], in assay [2], in assay [3], in assay [4] and in assay [5] was 0% throughout. The pest or weed control at 250 g/ha in assay [1], in assay [2], in assay [3], in assay [4] and in assay [5] was 0% in each case. Moreover, the plant injury at 15.625 g/ha in the assay on corn (Zea mays) turned out to be 0%. The plant injury at 62.5 g/ha in the assay with corn (Zea mays) is 0%. Also, the plant injury at 250 g/ha with corn (Zea mays) came to 0%.
In the case of `CN1C[C@@H](c2ccc(C(F)(F)F)cc2)[C@H](C(=O)Nc2nc[nH]n2)C1=O` (racemic) [Compound 1534], in assay [1], the pest or weed control at 15.625 g/ha came out at 0%, the pest or weed control at 62.5 g/ha came to 0% and the pest or weed control at 250 g/ha is 0%. In assay [2], the pest or weed control at 15.625 g/ha is 0%, the pest or weed control at 62.5 g/ha is 0% and the pest or weed control at 250 g/ha stood at 0%. Besides, in the assay on corn (Zea mays), the plant injury at 15.625 g/ha is 0%, the plant injury at 62.5 g/ha came to 0% and the plant injury at 250 g/ha is 0%. Further, in assay [3], the pest or weed control at 15.625 g/ha turned out to be 0%, the pest or weed control at 62.5 g/ha worked out at 0% and the pest or weed control at 250 g/ha turned out to be 0%. Moreover, in assay [4], the pest or weed control at 15.625 g/ha is 0%, the pest or weed control at 62.5 g/ha amounted to 0% and the pest or weed control at 250 g/ha was 0%. Moreover, in assay [5], the pest or weed control at 15.625 g/ha came out at 0%, the pest or weed control at 62.5 g/ha is 0% and the pest or weed control at 250 g/ha amounted to 0%.
As for `CN1C[C@@H](c2ccc(C(F)(F)F)cc2)[C@H](C(=O)Nc2cnccc2Cl)C1=O` (racemic) [Compound 1541], in assay [1], the pest or weed control at 15.625 g/ha came out at 0%, the pest or weed control at 62.5 g/ha came to 0% and the pest or weed control at 250 g/ha is 40%. Besides, in assay [2], the pest or weed control at 15.625 g/ha amounted to 0%, the pest or weed control at 62.5 g/ha is 0% and the pest or weed control at 250 g/ha was found to be 0%. Also, in the assay with corn (Zea mays), the plant injury at 15.625 g/ha was 0%, the plant injury at 62.5 g/ha was determined as 0% and the plant injury at 250 g/ha amounted to 10%. In assay [3], the pest or weed control at 15.625 g/ha is 0%, the pest or weed control at 62.5 g/ha is 0% and the pest or weed control at 250 g/ha was determined as 30%. In assay [4], the pest or weed control at 15.625 g/ha came out at 0%, the pest or weed control at 62.5 g/ha amounted to 0% and the pest or weed control at 250 g/ha is 70%. Besides, in assay [5], the pest or weed control at 15.625 g/ha worked out at 0%, the pest or weed control at 62.5 g/ha worked out at 0% and the pest or weed control at 250 g/ha came out at 0%.
